Measurements: patent US10106522B2, “Benzimidazole derivatives as antihistamine agents” (Faes Farma, S.A., priority 2014, dated 2018)

tested on: histamine papules; assay: Antihistaminic activity: histamine papules in rats (Evans blue extraction); assay type: in vivo; details: 20 mg/kg oral gavage, intradermal histamine one hour after administration
Protocol: Antihistaminic activity: histamine papules [Mota I., Life Sci., 1963, 12, 917-927; Lefebvre P. et al., C. R. Soc. Biol., 1962, 156, 183-186; and Udaka K. et al., Proc Soc Exp Biol Med, 1970, 133, 1384-1387]
Rats, males and/or females (110-160 g) were used, kept under the usual conditions of temperature and humidity. Previous day, backs of the animals were shaved and since that time (16-24 h) animals were subjected to solid fast but supplied ad libitum with an aqueous solution of sucrose (8%) and sodium chloride (0.2%). The compounds to be tested were dissolved in tartaric acid (Probus 015420) 0.1 M at a concentration of 5 mg/ml and then diluted with water until the concentration to be tested. This suspension or solution of the compound to be tested was administered by rigid oral gavage at 10 mL/kg. The control group received by the same administration mode a solution of tartaric acid (Probus 015420) 0.1 M in water. One hour after oral administration (products, patterns or vehicle), and under light ether anesthesia, two bumps were made on the shaved back by intradermal injection of Histamine hydrochloride (Sigma H-7250) dissolved in sterile saline (10 mg/0.1 mL/papule). Immediately after, dye injection of Evans blue (Merck No. 3169) dissolved in sterile saline (25 mg/kg/4 mL) was administered intravenously. […] The concentration of extracted Evans blue was determined by microplate reader.

Row | Structure (SMILES) | % inhibition, histamine papules
1 | COC(=O)COCCN1CCC(c2nc3ccccc3n2CCOc2ccccc2)CC1 [drawing 37] | 45.03%

target: human histamine H1-receptor (Homo sapiens (Human), UniProt P35367); assay: Affinity for histamine H1-receptor: 3H-pyrilamine binding to membranes of CHO cells transfected with the human H1 receptor; details: comparative compounds from the state of the art; same protocol; read-out: IC50, affinity for human histamine H1-receptor for comparative compounds
Protocol: Affinity for histamine H1-receptor was determined by binding studies to H1 receptors. The sample used is a suspension of membranes of CHO cells transfected with the human H1 receptor (5 mg/ml, PerkinElmer), stored at −80° C. until use. After thawing, the membranes were homogenized in assay buffer (50 mM Na/K phosphate) prepared in purified water and kept at room temperature (pH 7.4). The assay was performed in 96-well microplates. In each well, 25 μl of buffer and 25 μl of vehicle (total binding) or 10 μM pyrilamine (nonspecific binding) or the products to be tested was added. Subsequently, 200 μl of the membrane suspension was added to all wells and the microtiter plate was preincubated at 25° C. for 15 min. After this time, 25 μl of 3H-pyrilamine (1.5 nM) was added and the reaction was allowed to incubate for 60 min at 25° C. Then, free radioligand was quickly separated from bound radioligand by vacuum filtration (Multiscreen microplate Screener), performing 10 washes with assay buffer (4° C.). Subsequently 45 μl of scintillation fluid was added to each well and after sealing of the microplate, the radioactivity was quantified in a liquid scintillation counter (TopCount). The graphs of the inhibition curves and calculation the IC50 value were generated with the GraphPad Prism program.
Affinity for histamine H1-receptor of four compounds from the state of the art was determined by binding studies to H1 receptors using the same protocol as described above. The graphs of the inhibition curves and calculation the IC50 value were generated also with the GraphPad Prism program.

human histamine H1-receptor, sequence (P35367 whole entry): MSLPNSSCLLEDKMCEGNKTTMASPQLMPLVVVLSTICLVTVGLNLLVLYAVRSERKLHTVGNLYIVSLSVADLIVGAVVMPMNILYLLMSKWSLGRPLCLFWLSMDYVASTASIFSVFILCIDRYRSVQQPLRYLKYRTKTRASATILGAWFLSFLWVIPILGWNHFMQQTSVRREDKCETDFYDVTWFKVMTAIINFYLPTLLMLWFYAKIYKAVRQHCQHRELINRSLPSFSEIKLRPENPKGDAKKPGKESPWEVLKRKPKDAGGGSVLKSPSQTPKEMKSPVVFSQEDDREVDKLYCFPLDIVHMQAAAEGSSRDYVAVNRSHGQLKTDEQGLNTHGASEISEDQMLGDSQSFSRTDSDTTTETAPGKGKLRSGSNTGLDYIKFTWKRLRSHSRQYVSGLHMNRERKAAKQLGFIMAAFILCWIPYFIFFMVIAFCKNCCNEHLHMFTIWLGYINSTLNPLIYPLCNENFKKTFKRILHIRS

Row | IC50 | Structure (SMILES)
2 | 1990 nM | CCOCCn1c(C2CCN(CCOc3ccc(CC(=O)O)cc3)CC2)nc2ccccc21 [reference compound]
3 | 424 nM | CCOCCn1c(C2CCN(CCc3ccc(C(C)(C)C)cc3)CC2)nc2ccccc21 [reference compound]
4 | 271 nM | O=C(O)Cc1ccc(OCCN2CCC(c3nc4ccccc4n3CCOc3ccccc3)CC2)cc1 [reference compound]
5 | 260 nM | O=C(O)c1ccc(OCCN2CCC(c3nc4ccccc4n3CCOc3ccccc3)CC2)cc1 [reference compound]

same assay, conditions: compounds of the invention; 3H-pyrilamine 1.5 nM, 60 min at 25° C., CHO cell membranes; read-out: IC50, affinity for human histamine H1-receptor

Row | Structure (SMILES) | IC50
6 | OCCN1CCC(c2nc3ccccc3n2Cc2ccccn2)CC1 | 175 nM
7 | COC(=O)COCCN1CCC(c2nc3ccccc3n2CCOc2ccccc2)CC1 [drawing 32] | 195 nM

Now from value to compound:

Row | IC50 | Structure (SMILES)
8 | 28 nM | CCOCCn1c(C2CCN(CCCO)CC2)nc2ccccc21
9 | 93 nM | CCOCCn1c(C2CCN(CCOC)CC2)nc2ccccc21
10 | 169 nM | CCOCCn1c(C2CCN(CCOCC(=O)OCC)CC2)nc2ccccc21
11 | 25 nM | CCOCCn1c(C2CCN(CCO)CC2)nc2ccccc21
12 | 115 nM | CCOCCOCCN1CCC(c2nc3ccccc3n2CCOCC)CC1
13 | 54 nM | CCOCCn1c(C2CCN(CCOC(C)=O)CC2)nc2ccccc21
